# Read-outs that look alike come from different tables or passages of the source.
# Legend:
# [1] = tested on: Plasmopara viticola (PLASVI); format: in vivo; conditions: for Reduction in percent disease PLASVI / effect of Formulation I on the effectiveness of fungicides, PLASVI: fungicide with Formulation I at 100 ppm; for effect of Formulation I on the effectiveness of fungicides, PLASVI: Table 20; for Reduction in percent disease: aldehyde derivative 100 ppm with mancozeb
# [2] = tested on: Phytophthora infestans (PHYTIN); format: in vivo; conditions: for Reduction in percent disease PHYTIN / effect of Formulation I on the effectiveness of fungicides, PHYTIN: fungicide with Formulation I at 100 ppm; for effect of Formulation I on the effectiveness of fungicides, PHYTIN: Table 20
# [3] = tested on: Pseudoperonospora cubensis (PSPECU); conditions: in vivo
smiles,measurement,setting,value
CO/C=C(/C(=O)OC)c1ccccc1Oc1cc(Oc2ccccc2C#N)ncn1 [Azoxystrobin],Reduction in percent disease PLASVI,[1]; Table 18,x (0-20% reduction in percent disease)
same,Reduction in percent disease PHYTIN,[2]; Table 18,xx (21-35% reduction in percent disease)
same,"effect of Formulation I on the effectiveness of fungicides, PHYTIN",[2],xxx (36-50% reduction in percent disease)
same,Reduction in percent disease PSPECU,[3],x (key: x: 0-20% reduction in percent disease; xx: 21-35% reduction in percent disease; xxx: 36-50% reduction in percent disease; xxxx: >50% reduction in percent disease)
same,"effect of Formulation I on the effectiveness of fungicides, PSPECU",[3],x (key: x: 0-20% reduction in percent disease; xx: 21-35% reduction in percent disease; xxx: 36-50% reduction in percent disease; xxxx: >50% reduction in percent disease)
COCC(=O)N(c1c(C)cccc1C)[C@H](C)C(=O)OC [Mefenoxam],"Reduction in percent disease, Formul. II","[1]; PLASVI, fungicide with Formulation II at 100 ppm of attractant derivative, Table 22",xx (21-35% reduction in percent disease)
same,"effect of Formulation I on the effectiveness of fungicides, PLASVI",[1],x (0-20% reduction in percent disease)
same,"Reduction in percent disease, Formul. II","[2]; PHYTIN, fungicide with Formulation II at 100 ppm of attractant derivative, Table 22",xx (21-35% reduction in percent disease)
same,Reduction in percent disease PHYTIN,[2]; Table 18,xxxx (>50% reduction in percent disease)
same,"effect of Formulation I on the effectiveness of fungicides, PHYTIN",[2],xx (21-35% reduction in percent disease)
same,"Reduction in percent disease, Formul. II",[3],x (key: x: 0-20% reduction in percent disease; xx: 21-35% reduction in percent disease; xxx: 36-50% reduction in percent disease; xxxx: >50% reduction in percent disease)
COc1ccc(C(=CC(=O)N2CCOCC2)c2ccc(Cl)cc2)cc1OC [Dimethomorph],Reduction in percent disease PLASVI,[1]; Table 19,xx (21-35% reduction in percent disease)
same,Reduction in percent disease PHYTIN,[2]; Table 19,x (0-20% reduction in percent disease)
same,Reduction in percent disease PSPECU,[3],x (key: x: 0-20% reduction in percent disease; xx: 21-35% reduction in percent disease; xxx: 36-50% reduction in percent disease; xxxx: >50% reduction in percent disease)
[Cl-].[Cu+2].[Cu+2].[OH-].[OH-].[OH-] [Copper oxychloride],"effect of Formulation I on the effectiveness of fungicides, PLASVI",[1],x (0-20% reduction in percent disease)
same,"effect of Formulation I on the effectiveness of fungicides, PHYTIN",[2],x (0-20% reduction in percent disease)
same,"effect of Formulation I on the effectiveness of fungicides, PSPECU",[3],x (key: x: 0-20% reduction in percent disease; xx: 21-35% reduction in percent disease; xxx: 36-50% reduction in percent disease; xxxx: >50% reduction in percent disease)
CC(C)[C@H](NC(=O)O)C(=O)N[C@H](C)c1nc2ccc(F)cc2s1 [Benthiavalicarb],Reduction in percent disease PLASVI,[1]; Table 19,x (0-20% reduction in percent disease)
same,Reduction in percent disease PHYTIN,[2]; Table 19,x (0-20% reduction in percent disease)
same,Reduction in percent disease PSPECU,[3],xx (key: x: 0-20% reduction in percent disease; xx: 21-35% reduction in percent disease; xxx: 36-50% reduction in percent disease; xxxx: >50% reduction in percent disease)
COCC(=O)N(c1c(C)cccc1C)C(C)C(=O)OC (centres unmarked) [Metalaxyl],"effect of Formulation I on the effectiveness of fungicides, PLASVI",[1],x (0-20% reduction in percent disease)
same,"effect of Formulation I on the effectiveness of fungicides, PHYTIN",[2],xx (21-35% reduction in percent disease)
same,"effect of Formulation I on the effectiveness of fungicides, PSPECU",[3],x (key: x: 0-20% reduction in percent disease; xx: 21-35% reduction in percent disease; xxx: 36-50% reduction in percent disease; xxxx: >50% reduction in percent disease)
O=C1c2ccccc2C(=O)N1SC(Cl)(Cl)Cl [Folpet],"Reduction in percent disease, Formul. I","[2]; PHYTIN, fungicide with Formulation I at 100 ppm of attractant derivative, Table 22",x (0-20% reduction in percent disease)
same,"Reduction in percent disease, Formul. I",[3],x (key: x: 0-20% reduction in percent disease; xx: 21-35% reduction in percent disease; xxx: 36-50% reduction in percent disease; xxxx: >50% reduction in percent disease)
CNC(=O)/C(=N/OC)c1ccccc1COc1cc(C)ccc1C [Dimoxystrobin],Reduction in percent disease PLASVI,[1]; Table 19,x (0-20% reduction in percent disease)
same,Reduction in percent disease PHYTIN,[2]; Table 19,x (0-20% reduction in percent disease)
same,Reduction in percent disease PSPECU,[3],x (key: x: 0-20% reduction in percent disease; xx: 21-35% reduction in percent disease; xxx: 36-50% reduction in percent disease; xxxx: >50% reduction in percent disease)
CC(C)C/C=N/NC(=O)CCCC(=O)N/N=C/CC(C)C [Compound E],Reduction in percent disease,"[1]; PLASVI, Table 13",xx (21-35% reduction in percent disease)
same,Reduction in percent disease,[3],xxx (key: x: 0-20% reduction in percent disease; xx: 21-35% reduction in percent disease; xxx: 36-50% reduction in percent disease; xxxx: >50% reduction in percent disease)
CC(C)C/C=N/NC(=O)CCCCC(=O)N/N=C/CC(C)C [Compound N],Reduction in percent disease,"[1]; PLASVI, Table 15",x (0-20% reduction in percent disease)
same,Reduction in percent disease,[3],xx (key: x: 0-20% reduction in percent disease; xx: 21-35% reduction in percent disease; xxx: 36-50% reduction in percent disease; xxxx: >50% reduction in percent disease)
CO/N=C(/C(=O)OC)c1ccccc1COc1ccccc1C [Kresoxim-methyl],Reduction in percent disease PHYTIN,[2]; Table 18,x (0-20% reduction in percent disease)
same,Reduction in percent disease PSPECU,[3],x (key: x: 0-20% reduction in percent disease; xx: 21-35% reduction in percent disease; xxx: 36-50% reduction in percent disease; xxxx: >50% reduction in percent disease)
same,"Reduction in percent disease, Formul. II",[3],x (key: x: 0-20% reduction in percent disease; xx: 21-35% reduction in percent disease; xxx: 36-50% reduction in percent disease; xxxx: >50% reduction in percent disease)
CC(C)C/C=N/NC(N)=O [Compound D],Reduction in percent disease,"[1]; PLASVI, Table 13",x (0-20% reduction in percent disease)
same,Reduction in percent disease,[3],xx (key: x: 0-20% reduction in percent disease; xx: 21-35% reduction in percent disease; xxx: 36-50% reduction in percent disease; xxxx: >50% reduction in percent disease)
CCCC(=O)N/N=C/CC(C)C [Compound M],Reduction in percent disease,"[1]; PLASVI, Table 15",xx (21-35% reduction in percent disease)
same,Reduction in percent disease,[3],xxx (key: x: 0-20% reduction in percent disease; xx: 21-35% reduction in percent disease; xxx: 36-50% reduction in percent disease; xxxx: >50% reduction in percent disease)
COC(=O)N(OC)c1ccccc1COc1ccn(-c2ccc(Cl)cc2)n1 [Pyraclostrobin],Reduction in percent disease PHYTIN,[2]; Table 18,x (0-20% reduction in percent disease)
same,Reduction in percent disease PSPECU,[3],x (key: x: 0-20% reduction in percent disease; xx: 21-35% reduction in percent disease; xxx: 36-50% reduction in percent disease; xxxx: >50% reduction in percent disease)
CC(C)C/C=N/NC(=O)C(=O)N/N=C/CC(C)C [Compound G],Reduction in percent disease,"[1]; PLASVI, Table 13",xx (21-35% reduction in percent disease)
same,Reduction in percent disease,[3],xxx (key: x: 0-20% reduction in percent disease; xx: 21-35% reduction in percent disease; xxx: 36-50% reduction in percent disease; xxxx: >50% reduction in percent disease)
CC(C)C/C=N/NC(=O)CCCCCCCCC(=O)N/N=C/CC(C)C [Compound J],Reduction in percent disease,"[1]; PLASVI, Table 15",x (0-20% reduction in percent disease)
same,Reduction in percent disease,[3],xx (key: x: 0-20% reduction in percent disease; xx: 21-35% reduction in percent disease; xxx: 36-50% reduction in percent disease; xxxx: >50% reduction in percent disease)
CCCCCCCC(=O)N/N=C/CC(C)C [Compound K],Reduction in percent disease,"[1]; PLASVI, Table 15",xx (21-35% reduction in percent disease)
same,Reduction in percent disease,[3],xx (key: x: 0-20% reduction in percent disease; xx: 21-35% reduction in percent disease; xxx: 36-50% reduction in percent disease; xxxx: >50% reduction in percent disease)
CC(C)CC=NNC(=O)c1cccc(C(=O)N/N=C/CC(C)C)c1 [Compound C],Reduction in percent disease,"[1]; PLASVI, Table 13",xx (21-35% reduction in percent disease)
same,Reduction in percent disease,"[1]; PLASVI, Table 15",xx (21-35% reduction in percent disease)
same,Reduction in percent disease,[3],xxx (key: x: 0-20% reduction in percent disease; xx: 21-35% reduction in percent disease; xxx: 36-50% reduction in percent disease; xxxx: >50% reduction in percent disease)

# Reference: US20090246293A1 (priority 2008, published 2009)
